In ChEMBL document CHEMBL5154737, “Semisynthesis and biological evaluation of (+)-sclerotiorin derivatives as antitumor agents for the treatment of hepatocellular carcinoma” (Eur J Med Chem, 2022):
Calls of active or inactive are those of the source. The rule behind the calls is not given here.

Tests used:
[1] = test system: Bel-7402; assay: Cytotoxicity against human Bel-7402 cells assessed as reduction in cell viability incubated for 72 hrs by MTT assay; format: functional, cell-based; conditions: Bel-7402, 72 h
[2] = Cytotoxicity against human Biu-87 cells assessed as reduction in cell viability incubated for 72 hrs by MTT assay; format: functional, cell-based; conditions: BIU87, 72 h
[3] = AUC (0 to t) in Sprague-Dawley rat at 20 mg/kg, ip measured for 0.03 to 24 hrs by UPLC-MS analysis; format: ADME, organism-based; set-up: time lower 0.03 hrs, dose 20 mg/kg, time upper 24 hrs, route ip; conditions: in vivo
[4] = Cmax in Sprague-Dawley rat at 20 mg/kg, ip measured for 0.03 to 24 hrs by UPLC-MS analysis; format: ADME, organism-based; set-up: time lower 0.03 hrs, dose 20 mg/kg, time upper 24 hrs, route ip; conditions: in vivo
[5] = MRT (0 to t) in Sprague-Dawley rat at 20 mg/kg, ip measured for 0.03 to 24 hrs by UPLC-MS analysis; format: ADME, organism-based; conditions: in vivo, time 0.03-24 hrs
[6] = Toxicity in ICR mouse assessed as change in white blood cell count at 100 mg/kg, ip qd (reference value: 4.0 10^9/L); format: organism-based; conditions: in vivo
[7] = Toxicity in ICR mouse assessed as change in lymphocyte count at 100 mg/kg, ip qd (reference value: 3.0 10^9/L); format: organism-based; conditions: in vivo
[8] = Toxicity in ICR mouse assessed as change in monocyte count at 100 mg/kg, ip qd (reference value: 0.1 10^9/L); format: organism-based; conditions: in vivo
[9] = Toxicity in ICR mouse assessed as change in lymphocyte level at 100 mg/kg, ip qd (reference value: 75.2 %); format: organism-based; conditions: in vivo
[10] = Toxicity in ICR mouse assessed as change in monocyte level at 100 mg/kg, ip qd (reference value: 3.2 %); format: organism-based; conditions: in vivo
[11] = Toxicity in ICR mouse assessed as change in red blood cell count at 100 mg/kg, ip qd (reference value: 7.05 10^12/L); format: organism-based; conditions: in vivo
[12] = Toxicity in ICR mouse assessed as change in hemoglobin level at 100 mg/kg, ip qd (reference value: 124 g/L); format: organism-based; conditions: in vivo
[13] = Toxicity in ICR mouse assessed as change in red blood cell specific volume at 100 mg/kg, ip qd (reference value: 36.1 %); format: organism-based; conditions: in vivo
[14] = Toxicity in ICR mouse assessed as change in platelet count at 100 mg/kg, ip qd (reference value: 742 10^9/L); format: organism-based; conditions: in vivo
[15] = test system: Bel-7402; assay: Cytotoxicity against human Bel-7402 cells assessed as inhibition rate at 5 uM by MTT assay; format: functional, cell-based; conditions: time 72.0 hrs, TDE = time-dependent effect
[16] = test system: Bel-7402; assay: Cytotoxicity against human Bel-7402 cells assessed as inhibition rate at 5 uM incubated for 72 hrs by MTT assay relative to control; format: functional; set-up: scale not given: the % may be the effect or the level left
[17] = test system: Bel-7402; assay: Inhibition of cell proliferation in human Bel-7402 cells assessed as inhibition of colony formation incubated for 10 days by crystal violet based plate clone formation assay; format: functional; conditions: dose <= 2.0 µM, time 10.0 day, DDE = dose-dependent effect
[18] = test system: Bel-7402; assay: Cytotoxicity against human Bel-7402 cells assessed as inhibition of cell growth incubated for 72 hrs by MTT assay; format: functional, cell-based; conditions: dose 5.0 µM, DDE = dose-dependent effect
[19] = test system: Bel-7402; assay: Cytotoxicity against human Bel-7402 cells assessed as LDH release at 2.5 uM incubated for 24 hrs by LDH assay; format: functional, cell-based
[20] = test system: Bel-7402; assay: Induction of apoptosis in human Bel-7402 cells assessed as dead cells at 0.313 uM incubated for 24 hrs by Annexin V and dead cell assay kit (reference value: 0.80 %); format: functional
[21] = test system: Bel-7402; assay: Induction of apoptosis in human Bel-7402 cells assessed as viable cells at 0.625 uM incubated for 24 hrs by Annexin V and dead cell assay kit (reference value: 91.00%); format: functional; conditions: read-out: Activity
[22] = test system: Bel-7402; assay: Induction of apoptosis in human Bel-7402 cells assessed as dead cells at 0.625 uM incubated for 24 hrs by Annexin V and dead cell assay kit (reference value: 0.80 %); format: functional
[23] = test system: Bel-7402; assay: Induction of apoptosis in human Bel-7402 cells assessed as viable cells at 2.5 uM incubated for 24 hrs by Annexin V and dead cell assay kit (reference value: 91.00%); format: functional; conditions: read-out: Activity
[24] = test system: Bel-7402; assay: Induction of apoptosis in human Bel-7402 cells assessed as late apoptotic cells at 5 uM incubated for 24 hrs by Annexin V and dead cell assay kit (reference value: 4.45 %); format: functional
[25] = test system: Bel-7402; assay: Effect on AKT signalling pathway in human Bel-7402 cells assessed as decrease in phosphorylated-AKT level upto 2.5 uM incubated for 24 hrs by Western blot analysis; format: functional, cell-based
[26] = test system: Bel-7402; assay: Antitumor activity against human Bel-7402 cells xenografted in BALB/c nude mouse assessed as reduction in tumor growth at 20 mg/kg, ip qd measured every 2 days for 14 days; format: functional, organism-based; conditions: time 14.0 day
[27] = test system: Bel-7402; assay: Antitumor activity against human Bel-7402 cells xenografted in BALB/c nude mouse assessed as tumor growth inhibition at 20 mg/kg, ip bid for 14 days measured every 2 days relative to control; format: functional; conditions: Bel-7402, 336 h, time 14 day, read-out: TGI
[28] = Chronic toxicity in ICR mouse assessed as effect on spleen morphology at 100 mg/kg, ip qd measured after 26 days by H and E staining method; format: organism-based; conditions: in vivo, 624 h, time 26 day
[29] = Chronic toxicity in ICR mouse assessed as effect on kidney morphology at 100 mg/kg, ip qd measured after 26 days by H and E staining method; format: organism-based; conditions: in vivo, 624 h, time 26 day
[30] = Biodistribution in lung of mouse bearing tumor measured after 24 hr by ICG dye based fluorescence imaging; format: ADME, organism-based; conditions: in vivo
[31] = Toxicity in BALB/c nude mouse xenografted with Bel-7402 cells assessed as behavioural change at 20 mg/kg, ip qd; format: organism-based; conditions: in vivo
[32] = Acute toxicity in ICR mouse assessed as body weight change at 100 to 500 mg/kg, ip; format: organism-based; conditions: in vivo, dose 100-500 mg/kg
[33] = Sub-chronic toxicity in ICR mouse assessed as body weight change at 100 mg/kg/day, ip for 26 days; format: organism-based; conditions: in vivo, 624 h, time 26 day
[34] = Sub-chronic toxicity in ICR mouse assessed as behavioural change at 100 mg/kg/day, ip for 26 days; format: organism-based; conditions: in vivo, 624 h, time 26 day
[35] = Sub-chronic toxicity in ICR mouse assessed as change in amount of food intake at 100 mg/kg/day, ip for 26 days; format: organism-based; conditions: in vivo, 624 h, time 26 day
[36] = test system: HeLa; assay: Cytotoxicity against human HeLa cells assessed as reduction in cell viability incubated for 72 hrs by MTT assay; format: functional, cell-based
[37] = test system: Bel-7402; assay: Induction of apoptosis in human Bel-7402 cells assessed as viable cells at 2.5 uM incubated for 24 hrs by Annexin V and Dead cell kit assay (reference value: 90.82 %); format: functional; conditions: read-out: Activity
[38] = test system: Bel-7402; assay: Induction of apoptosis in human Bel-7402 cells assessed as late apoptotic cells at 2.5 uM incubated for 24 hrs by Annexin V and Dead cell kit assay (reference value: 3.85 %); format: functional
[39] = test system: Bel-7402; assay: Induction of apoptosis in human Bel-7402 cells assessed as viable cells at 2.5 uM incubated for 24 hrs in presence of U0126 by Annexin V and Dead cell kit assay (reference value: 90.82 %); format: functional; conditions: read-out: Activity

CC[C@H](C)/C=C(C)/C=C/C1=CC2=C(Cl)C(=O)[C@](C)(O)C(=O)C2=CN1Cc1ccc(OC(F)(F)F)cc1
IC50 [1]: 1.15 µM
IC50 [2]: 2.76 µM
AUC(0-t) [3]: 29700 ng·h/mL
Cmax [4]: 5590 ng/mL
MRT last [5]: 4.46 h
Activity [6]: 3.4 10^9/L
Activity [7]: 1.7 10^9/L
Activity [8]: 0.3 10^9/L
Activity [9]: 50.3%
Activity [10]: 8.1%
Activity [11]: 8.37 10^12/L
Activity [12]: 141 g/L
Activity [13]: 46%
Activity [14]: 608 10^9/L
Activity [15]: Tde
Activity [16]: 90.13%
Activity [17]: Dde
Activity [18]: Dde
Activity [19]: Active
Activity [20]: 0.35%
viability at 0.625 µM [21]: 91.6%
Activity [22]: 0.6%
viability at 2.5 µM [23]: 44.9%
Activity [24]: 75.55%
Activity [25]: Active
TGI [26]: Active
inhibition in vivo at 20 mg/kg [27]: 52.5%
Activity [28]: Non-Toxic
Activity [29]: Non-Toxic
Activity [30]: Active
Activity [31]: Non-Toxic
Activity [32]: Non-Toxic
Activity [33]: Non-Toxic
Activity [34]: Non-Toxic
Activity [35]: Non-Toxic
IC50 [36]: 2.78 µM
viability at 2.5 µM [37]: 25.1%
Activity [38]: 37.9%
viability at 2.5 µM [39]: 29.2%
